Results published in the METLIN SMRT retention time set (Domingo-Almenara et al. 2019).

Test: gradient 5% acetonitrile 3 min, to 50% in 2 min, to 85% in 15 min, held 3 min, 100 µL/min
Conditions: column: Zorbax Extend-C18 2.1 x 50 mm; eluents: water / acetonitrile, 0.1% formic acid
Method in brief: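 Retention times of pure standards were taken from adduct peaks that were selected by computer and manually inspected. Over 3 months, mixtures of ~100 molecules were run by HPLC–quadrupole time-of-flight mass spectrometry in positive and negative ionization mode. The Zorbax Extend-C18 column (2.1 × 50 mm, 1.8 μm) ran at 100 μL/min in water and acetonitrile, each containing 0.1% formic acid, with 40 μL dead volume and 900 μL dwell volume.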

| RP-LC retention time | Structure (SMILES) |
| --- | --- |
| 633 s | Cn1nc(C(=O)N2CCCC(C(=O)NC3CC3)C2)c2c1CCN(C(=O)c1ccc(F)cc1)C2 (stereo unspecified) |
| 927 s | CCOc1cc(C(=O)NC2CCN(c3cc(-c4ccc(Cl)cc4)[nH]n3)C2)cc(OCC)c1OCC (stereo unspecified) |
| 626 s | O=C(NC1CC1)c1cc(=O)[nH]c2c(Cl)cccc12 |
| 735 s | CC(C(=O)NCCN(C)Cc1ccccc1)n1c(=O)c(C(F)(F)F)nc2ccccc21 (stereo unspecified) |
| 702 s | O=C(NCC1CCCO1)C1CCN(Cc2cc3ccccc3n2Cc2ccc(F)cc2)CC1 (stereo unspecified) |
| 805 s | Cn1nc(-c2nc(C3CC3)no2)c2c1CCN(C(=O)c1ccccc1F)C2 |
| 703 s | CCn1cc(-c2ccccc2)cc1C(=O)NCc1ccccn1 |
| 594 s | COc1nn(C)cc1-c1nnc(SCC(=O)NCc2ccc(F)cc2)n1C |
| 845 s | COc1ccccc1-c1noc(C2CCCN2C(=O)c2ccc3c(c2)OCO3)n1 (stereo unspecified) |
| 597 s | CCOC(=O)C1=C(C)NC(=O)NC1c1nc2ccccc2n1CC (stereo unspecified) |
| 878 s | Cc1ccc(S(=O)(=O)N2CCC(c3nc(C(=O)N(C)C)c(C)o3)CC2)cc1C |
| 765 s | O=C(c1ccc(Cl)cc1)N1CCC2(C1)C(=O)Nc1ccccc12 (stereo unspecified) |
| 1000 s | Cc1csc(-c2cc(S(=O)(=O)N(C)Cc3ccco3)c(C)n2C)n1 |
| 823 s | Cc1nnc(C2CCCN(C(=O)c3cc(C(F)(F)F)cc(C(F)(F)F)c3)C2)s1 (stereo unspecified) |
| 666 s | COC(=O)c1ccccc1NC(=O)c1ccc(-n2ccnc2)nn1 |
| 853 s | CCCn1c(=O)sc2cc(S(=O)(=O)N3CCC(C(=O)NC(C)CC)CC3)ccc21 (stereo unspecified) |
| 997 s | CCS(=O)(=O)N1CC(=O)N(c2ccc(F)cc2C)C(C)(C(=O)NC2CCCCCCC2)C1 (stereo unspecified) |
| 705 s | COc1ccc(-c2cc(N3CCC(NC(=O)c4ccc(OC)cc4OC)C3)n[nH]2)cc1 (stereo unspecified) |
| 826 s | O=C(Nc1ccc(F)c(Cl)c1)C1CCN(C(=O)C2Sc3ccccc3NC2=O)CC1 (stereo unspecified) |
| 593 s | c1ccc(N2CCN(Cc3nc(-c4ccc(N5CCCCCC5)nc4)no3)CC2)nc1 |
| 806 s | O=C(COc1cccc2c(=O)[nH]ccc12)c1ccccc1 |
| 821 s | Cc1cc(N2CCN(S(=O)(=O)c3cc(F)ccc3F)CC2)nc(NC2CCCCC2)n1 |
| 1130 s | Fc1cccc(Cc2noc(-c3nc(-c4ccccc4F)no3)n2)c1 |

| RP-LC retention time | Structure (SMILES) |
| --- | --- |
| 864 s | Cn1c(N2CCCCS2(=O)=O)nc(C(=O)NCc2ccc(F)cc2)c(O)c1=O |
| 1330 s | Cc1nn(-c2nc(-c3ccc(Cl)cc3)cs2)c(C)c1CC(=O)N1CCc2ccccc2C1 |
| 769 s | COc1cccc(NC(=O)C2CCN(c3c(C)n(C)c(=O)n(C)c3=O)CC2)c1 |
| 976 s | COc1ccc(Cc2nnc3sc(-c4ccccc4OC)nn23)cc1 |
| 900 s | Cc1ccccc1S(=O)(=O)N1CCC(c2noc(-c3ccccn3)n2)C1 (stereo unspecified) |
| 1100 s | CSc1nc2cc(S(=O)(=O)N3CCCCC3)ccc2s1 |
| 781 s | CN(C)C(=O)c1cc2c(s1)CCC(C(=O)N1CCOCC1)C2 (stereo unspecified) |
| 621 s | CCn1cc(CCN2CCC(C(=O)Nc3ccccc3C)CC2)c2cccnc21 |
| 656 s | Cc1ccc(C)c(NC(=O)Cn2c(N3CCCC3)nc(C)cc2=O)c1 |
| 767 s | Cc1nc2cc(N3CCC(C(=O)NCCC4=CCCCC4)CC3)cnc2nc1C |
| 734 s | O=C(NC1CCCCC1)N1CCC(c2noc(-c3ccccn3)n2)C1 (stereo unspecified) |
| 710 s | CC(C)NC(=O)c1cc(C(C)(C)C)[nH]n1 |
| 983 s | COCCOC1CCC12CCN(S(=O)(=O)c1ccccc1C)CC2 (stereo unspecified) |
| 621 s | O=C(Nc1ccc(Cn2cncn2)cc1)c1ccoc1 |
| 804 s | Cc1ccc(NC(=O)C2CCN(S(=O)(=O)c3cc(C(=O)N(C)C)cs3)CC2)c(C)c1 |
| 673 s | CCC(=O)Nc1ccc(C2(C(=O)O)CCC2)cc1 |
| 1020 s | CC(=O)c1ccc(NC(=O)Cn2nc3c4cc(-c5ccc(C(C)C)cc5)nn4ccn3c2=O)cc1 |
| 1150 s | O=S(=O)(Nc1ccc(F)cc1)c1cccnc1Nc1ccc(Br)cc1 |
| 924 s | Cn1c(=O)n(CC(=O)N2CCCC2)c(=O)c2cnc(-c3ccc(Cl)cc3)nc21 |
| 763 s | Cc1ccc2c(c1)C(=O)NC1(CCN(C(=O)NC3CCCCC3)CC1)N2C |
| 626 s | CC(=O)N1c2ccc(S(=O)(=O)N3CCCCC3)cc2CC1C(=O)NCCN1CCCCC1 (stereo unspecified) |
| 845 s | Cc1nc(-c2ccc(OC3CCN(C(=O)NC4CCCCC4)C3)cc2)no1 (stereo unspecified) |
| 1150 s | Cc1cccc(-c2noc(Cn3c(=O)n(Cc4ccccc4Cl)c(=O)c4sccc43)n2)c1 |

| RP-LC retention time | Structure (SMILES) |
| --- | --- |
| 773 s | CCN(CC)c1ccc(C2=NNC(=O)CC2C)cc1[N+](=O)[O-] (stereo unspecified) |
| 610 s | CC(=O)N[C@@H]1CN(C(=O)Cc2ccccc2Br)C[C@H]1CO |
| 946 s | COc1ccc(-c2nc(CCS(=O)(=O)c3ccc(Cl)cc3)no2)cc1OC |
| 1330 s | O=C1CN(Cc2ccc(F)cc2Cl)CC2(CCCCC2)N1CC1CC1 |
| 886 s | Cc1nnc(-c2cc(NC(=O)Cc3c(F)cccc3Cl)c(C)s2)o1 |
| 913 s | COc1ccc(C(=O)C(C)OC(=O)C(C)N2C(=O)c3ccccc3C2=O)cc1 (stereo unspecified) |
| 640 s | Cc1ccc(CNC(=O)C2CCCN(c3nc4ncccc4n4cccc34)C2)cc1 (stereo unspecified) |
| 809 s | CC(C)CNS(=O)(=O)c1ccc(-c2nnc(C3CC3)o2)o1 |
| 747 s | CCCNC(=O)N(C1CCOCC1)C1CCN(C(=O)c2ccc(C)s2)CC1 |
| 870 s | O=C(NC1CCN(c2cc(-c3ccc(Cl)cc3)[nH]n2)C1)c1cccc(Br)c1 (stereo unspecified) |
| 648 s | O=C(NC1CCN(c2ccc(=O)[nH]n2)C1)c1ccc(F)c(Cl)c1 (stereo unspecified) |
| 561 s | CCc1nnc2cc(N3CCN(C(=O)c4ccc(Cl)cc4)CC3)cnn12 |
| 591 s | COc1cccc(CCC(=O)N2CCN(C3=NC=CN4CC(C)N=C34)CC2)c1 (stereo unspecified) |
| 730 s | Cc1ccc2nc(N3CCN(c4ccccc4F)CC3)c(-c3noc(C)n3)cc2c1 |
| 1170 s | COc1cccc(-c2csc(-c3nnn(-c4ccc(C)c(C)c4)c3N)n2)c1 |
| 669 s | O=C(C1CCN(c2ncnc3c2nc2n3CCCCC2)CC1)N1CCN(c2ncccn2)CC1 |
| 1370 s | Cc1ccc(C)c(-c2coc(-c3ccc(NC(=O)C4CCCCC4)cc3)n2)c1 |
| 626 s | Cn1c(=O)c2c(C(=O)NCC3CCN(Cc4ccc(Cl)cc4)CC3)cc(=O)n(C)c2n(C)c1=O |
| 695 s | O=C(NC1CCN(c2cc(-c3ccc(F)cc3)[nH]n2)C1)c1ccc2c(c1)OCO2 (stereo unspecified) |
| 600 s | Cc1cc(=O)n(CC(=O)Nc2cccc(C)c2C)c(N)n1 |
| 643 s | Cc1ccc2[nH]c3c(c2c1)CCNC31C(=O)Nc2ccccc21 (stereo unspecified) |
| 741 s | Cc1noc(C)c1CCNC(=O)C(C)n1c2ccccc2c2cnn(C)c(=O)c21 (stereo unspecified) |
| 772 s | CN(C)CCCN1c2ccccc2Sc2ccc3ccccc3c21 |

| RP-LC retention time | Structure (SMILES) |
| --- | --- |
| 1210 s | Cc1ccc(C(=O)Nc2nc(-c3ccc(Br)cc3)cs2)cc1[N+](=O)[O-] |
| 718 s | O=C(Cc1csc(Nc2cccc(Cl)c2)n1)N1CCN(C(=O)c2ccco2)CC1 |
| 774 s | CCc1ccc(S(=O)(=O)N2CCCC(Cn3cnc4cccnc43)C2)cc1 (stereo unspecified) |
| 729 s | COCC(=O)Nc1cnc(-c2ccccc2)nc1 |
| 845 s | Cc1cc(N2CCC(NC(=O)Nc3ccc(F)cc3F)C2=O)ccc1F (stereo unspecified) |
| 554 s | Cn1ccc(CN2CCN(Cc3ccccc3F)CC2)cc1=O |
| 780 s | O=C(Cc1ccc(Br)cc1)NC1CCN(c2cc(-c3ccc(F)cc3)[nH]n2)C1 (stereo unspecified) |
| 790 s | CCC(=O)N1CCc2cc(CNS(=O)(=O)c3ccccc3)ccc21 |
| 750 s | O=S(=O)(Nc1ccc(Cl)cc1)c1c[nH]c2ncccc12 |
| 770 s | CCc1cc(=O)n(CC(=O)Nc2cc(F)ccc2F)c(N2CCOCC2)n1 |
| 744 s | COc1ccc(C(=O)/C(Br)=C/C(=O)O)cc1 |
| 919 s | Cc1ccc2c(c1)OCC(=O)N2Cc1nc(-c2cccc(C(F)(F)F)c2)no1 |
| 972 s | Cc1ccc(-c2ccc(-n3nc(C)c(S(=O)(=O)N4CCOCC4)c3C)nn2)cc1 |
| 723 s | COc1cc(NC(=O)N2CCN(c3ccc(=O)n(-c4ccc(F)cc4)n3)CC2)cc(OC)c1OC |
| 615 s | COCc1ncc(C)n1CCNC(=O)Nc1ccsc1C(=O)OC |
| 618 s | CCCCN1CCN(C(=O)c2ccc3c(c2)nc2n3CCN(C3CCCCC3)C2=O)CC1 |
| 678 s | O=C1CC(NC(=O)C2(c3ccc(Cl)cc3)CCCC2)CN1 (stereo unspecified) |
| 646 s | O=C(NCCCN1CCN(Cc2ccccc2)CC1)c1sc2ncccc2c1-n1cccc1 |
| 634 s | Cc1ccc(C)n1-c1nnc(N2CCC(C(=O)N3CCN(c4ccccn4)CC3)CC2)s1 |
| 629 s | O=C(Cc1ccc(F)cc1)NC1CCN(c2nnc3ccccn23)CC1 |
| 698 s | O=C(NCCCO)C(=O)NCCc1ccc(Cl)cc1 |

| Structure (SMILES) | RP-LC retention time |
| --- | --- |
| COc1ccc2c(c1)C1(CCN(C(=O)COc3ccccc3)C1)C(=O)N2 (stereo unspecified) | 733 s |
